In brackets after ≈: the same amount, converted by molar mass. Activity calls are given as the source filed them. The rule behind the calls is not given here.
Tests used:
Streptococcus mutans [1] = assay: Antibacterial activity against Streptococcus mutans MTCC 497 measured after 24 hrs by NCCL protocol based broth dilution method; format: functional
Micrococcus luteus [2] = assay: Antibacterial activity against Micrococcus luteus MTCC 106 assessed as zone of inhibition at 100 ug/well measured after 24 hrs by agar well diffusion method; format: functional; conditions: MTCC 106, 24 h, read-out: DIZ
Aspergillus fumigatus [3] = assay: Antifungal activity against Aspergillus fumigatus MTCC 343 assessed as zone of inhibition at 100 ug/well measured after 48 hrs by agar well diffusion method; format: functional; conditions: MTCC 343, 48 h, read-out: DIZ
Salmonella typhi [4] = assay: Antibacterial activity against Salmonella typhi assessed as zone of inhibition at 100 ug/well measured after 24 hrs by agar well diffusion method; format: functional, Salmonella enterica subsp. enterica serovar Typhi; conditions: Salmonella enterica, read-out: DIZ
Salmonella typhi [5] = assay: Antibacterial activity against Salmonella typhi measured after 24 hrs by NCCL protocol based broth dilution method; format: functional
Salmonella paratyphi [6] = assay: Antibacterial activity against Salmonella paratyphi measured after 24 hrs by NCCL protocol based broth dilution method; format: functional
Streptococcus mutans [7] = assay: Antibacterial activity against Streptococcus mutans MTCC 497 assessed as zone of inhibition at 100 ug/well measured after 24 hrs by agar well diffusion method; format: functional; conditions: MTCC 497, 24 h, read-out: DIZ
Salmonella paratyphi [8] = assay: Antibacterial activity against Salmonella paratyphi assessed as zone of inhibition at 100 ug/well measured after 24 hrs by agar well diffusion method; format: functional, Salmonella enterica subsp. enterica serovar Paratyphi A; conditions: Salmonella enterica, read-out: DIZ
Staphylococcus aureus [9] = assay: Antibacterial activity against Staphylococcus aureus MTCC 3160 measured after 24 hrs by NCCL protocol based broth dilution method; format: functional
Candida albicans [10] = assay: Antifungal activity against Candida albicans MTCC 3017 measured after 48 hrs by NCCL protocol based broth dilution method; format: functional
Klebsiella pneumoniae [11] = assay: Antibacterial activity against Klebsiella pneumoniae MTCC 3384 measured after 24 hrs by NCCL protocol based broth dilution method; format: functional
Candida albicans [12] = assay: Antifungal activity against Candida albicans MTCC 3017 assessed as zone of inhibition at 100 ug/well measured after 48 hrs by agar well diffusion method; format: functional; conditions: MTCC 3017, 48 h, read-out: DIZ
Staphylococcus aureus [13] = assay: Antibacterial activity against Staphylococcus aureus MTCC 3160 assessed as zone of inhibition at 100 ug/well measured after 24 hrs by agar well diffusion method; format: functional; conditions: MTCC 3160, 24 h, read-out: DIZ
Aspergillus fumigatus [14] = assay: Antifungal activity against Aspergillus fumigatus MTCC 343 measured after 48 hrs by NCCL protocol based broth dilution method; format: functional
Klebsiella pneumoniae [15] = assay: Antibacterial activity against Klebsiella pneumoniae MTCC 3384 assessed as zone of inhibition at 100 ug/well measured after 24 hrs by agar well diffusion method; format: functional; conditions: MTCC 3384, 24 h, read-out: DIZ
Micrococcus luteus [16] = assay: Antibacterial activity against Micrococcus luteus MTCC 106 measured after 24 hrs by NCCL protocol based broth dilution method; format: functional
[17] = Salmonella enterica subsp. enterica serovar Typhi
[18] = Salmonella enterica subsp. enterica serovar Paratyphi A

SMILES	zone of inhibition at 100 µg/disc (Micrococcus luteus [2])	zone of inhibition at 100 µg/disc (Aspergillus fumigatus [3])	zone of inhibition at 100 µg/disc (Salmonella typhi [4])	zone of inhibition at 100 µg/disc (Streptococcus mutans [7])	zone of inhibition at 100 µg/disc (Salmonella paratyphi [8])	zone of inhibition at 100 µg/disc (Candida albicans [12])	zone of inhibition at 100 µg/disc (Staphylococcus aureus [13])	zone of inhibition at 100 µg/disc (Klebsiella pneumoniae [15])	MIC (Streptococcus mutans [1]; MTCC 497, 24 h)	MIC (Salmonella typhi [5]; Salmonella enterica)	MIC (Salmonella paratyphi [6]; Salmonella enterica)	MIC (Staphylococcus aureus [9]; MTCC 3160, 24 h)	MIC (Candida albicans [10]; MTCC 3017, 48 h)	MIC (Klebsiella pneumoniae [11]; MTCC 3384, 24 h)	MIC (Aspergillus fumigatus [14]; MTCC 343, 48 h)	MIC (Micrococcus luteus [16]; MTCC 106, 24 h)	also measured
CC1(C)O[C@H]2O[C@@H]3COC(c4cccc(C=O)c4)O[C@@H]3[C@H]2O1 (some centres not stated)	0 mm	0 mm	0 mm	0 mm	0 mm	0 mm	0 mm	0 mm	–	–	–	–	–	–	–	–	MIC (Streptococcus mutans [1]): inactive; MIC (Salmonella typhi [5]; [17]): inactive; MIC (Salmonella paratyphi [6]; [18]): inactive; MIC (Staphylococcus aureus [9]): inactive; MIC (Candida albicans [10]): inactive; MIC (Klebsiella pneumoniae [11]): inactive; MIC (Aspergillus fumigatus [14]): inactive; MIC (Micrococcus luteus [16]): inactive
COc1ccc(/C=N/c2cccc(B3OC[C@H]4O[C@@H]5OC(C)(C)O[C@@H]5[C@H]4O3)c2)c(O)c1	21 mm	0 mm	21 mm	22 mm	0 mm	13 mm	15 mm	19 mm	62.5 mg/L (≈ 147 µM)	62.5 mg/L (≈ 147 µM)	250 mg/L (≈ 588 µM)	125 mg/L (≈ 294 µM)	250 mg/L (≈ 588 µM)	62.5 mg/L (≈ 147 µM)	250 mg/L (≈ 588 µM)	62.5 mg/L (≈ 147 µM)	–
CC1(C)O[C@H]2O[C@@H]3COB(c4cccc(/N=C/c5ccccc5O)c4)O[C@@H]3[C@H]2O1	22 mm	0 mm	22 mm	20 mm	13 mm	14 mm	13 mm	16 mm	62.5 mg/L (≈ 158 µM)	62.5 mg/L (≈ 158 µM)	250 mg/L (≈ 633 µM)	250 mg/L (≈ 633 µM)	125 mg/L (≈ 316 µM)	125 mg/L (≈ 316 µM)	500 mg/L (≈ 1270 µM)	62.5 mg/L (≈ 158 µM)	–
CC1(C)O[C@H]2O[C@@H]3COB(c4cccc(/C=N/c5ccccc5)c4)O[C@@H]3[C@H]2O1	14 mm	0 mm	21 mm	21 mm	21 mm	11 mm	13 mm	19 mm	62.5 mg/L (≈ 165 µM)	62.5 mg/L (≈ 165 µM)	62.5 mg/L (≈ 165 µM)	125 mg/L (≈ 330 µM)	250 mg/L (≈ 659 µM)	125 mg/L (≈ 330 µM)	500 mg/L (≈ 1320 µM)	250 mg/L (≈ 659 µM)	–
CC1(C)O[C@H]2O[C@@H]3COB(c4cccc(/N=C/c5ccc(Br)cc5O)c4)O[C@@H]3[C@H]2O1	21 mm	0 mm	24 mm	17 mm	14 mm	17 mm	13 mm	12 mm	125 mg/L (≈ 264 µM)	31.2 mg/L (≈ 65.9 µM)	250 mg/L (≈ 527 µM)	250 mg/L (≈ 527 µM)	125 mg/L (≈ 264 µM)	125 mg/L (≈ 264 µM)	500 mg/L (≈ 1050 µM)	62.5 mg/L (≈ 132 µM)	–
CC1(C)O[C@H]2O[C@@H]3COC(c4cccc(/C=N/c5ccc(F)cc5)c4)O[C@@H]3[C@H]2O1 (some centres not stated)	0 mm	0 mm	0 mm	6 mm	0 mm	6 mm	7 mm	0 mm	250 mg/L (≈ 626 µM)	–	–	500 mg/L (≈ 1250 µM)	500 mg/L (≈ 1250 µM)	–	–	500 mg/L (≈ 1250 µM)	MIC (Salmonella typhi [5]; [17]): inactive; MIC (Salmonella paratyphi [6]; [18]): inactive; MIC (Klebsiella pneumoniae [11]): inactive; MIC (Aspergillus fumigatus [14]): inactive
CC1(C)O[C@H]2O[C@@H]3COB(c4ccc(/C=N/c5ccc(Cl)cc5)cc4)O[C@@H]3[C@H]2O1	13 mm	0 mm	22 mm	22 mm	13 mm	11 mm	16 mm	24 mm	62.5 mg/L (≈ 151 µM)	62.5 mg/L (≈ 151 µM)	125 mg/L (≈ 302 µM)	125 mg/L (≈ 302 µM)	250 mg/L (≈ 604 µM)	62.5 mg/L (≈ 151 µM)	500 mg/L (≈ 1210 µM)	125 mg/L (≈ 302 µM)	–
